Reference: patent US10065990B2, “Cyclic peptide compound, and preparation method, pharmaceutical composition and use thereof” (HANGZHOU GUANYU BIO-MEDICAL CO., LTD, priority 2013, dated 2018)
Where two headings read alike, the source gives them in different places.

Experiments:
[1] = molecular target: T1, HDAC7 (Homo sapiens, UniProt Q8WUI4); experiment: HDAC biochemical activity measurement (fluorescent substrate deacetylation);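 also: fluorogenic deacetylation assay using acetyl-lysine substrate at 20 µM, enzyme and compound incubated 30 min at 37 °C, then developer added, fluorescence read at 360/460 nm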; conditions: HDAC7; 37° C. 30 minutes
T1 sequence (Q8WUI4 1-952): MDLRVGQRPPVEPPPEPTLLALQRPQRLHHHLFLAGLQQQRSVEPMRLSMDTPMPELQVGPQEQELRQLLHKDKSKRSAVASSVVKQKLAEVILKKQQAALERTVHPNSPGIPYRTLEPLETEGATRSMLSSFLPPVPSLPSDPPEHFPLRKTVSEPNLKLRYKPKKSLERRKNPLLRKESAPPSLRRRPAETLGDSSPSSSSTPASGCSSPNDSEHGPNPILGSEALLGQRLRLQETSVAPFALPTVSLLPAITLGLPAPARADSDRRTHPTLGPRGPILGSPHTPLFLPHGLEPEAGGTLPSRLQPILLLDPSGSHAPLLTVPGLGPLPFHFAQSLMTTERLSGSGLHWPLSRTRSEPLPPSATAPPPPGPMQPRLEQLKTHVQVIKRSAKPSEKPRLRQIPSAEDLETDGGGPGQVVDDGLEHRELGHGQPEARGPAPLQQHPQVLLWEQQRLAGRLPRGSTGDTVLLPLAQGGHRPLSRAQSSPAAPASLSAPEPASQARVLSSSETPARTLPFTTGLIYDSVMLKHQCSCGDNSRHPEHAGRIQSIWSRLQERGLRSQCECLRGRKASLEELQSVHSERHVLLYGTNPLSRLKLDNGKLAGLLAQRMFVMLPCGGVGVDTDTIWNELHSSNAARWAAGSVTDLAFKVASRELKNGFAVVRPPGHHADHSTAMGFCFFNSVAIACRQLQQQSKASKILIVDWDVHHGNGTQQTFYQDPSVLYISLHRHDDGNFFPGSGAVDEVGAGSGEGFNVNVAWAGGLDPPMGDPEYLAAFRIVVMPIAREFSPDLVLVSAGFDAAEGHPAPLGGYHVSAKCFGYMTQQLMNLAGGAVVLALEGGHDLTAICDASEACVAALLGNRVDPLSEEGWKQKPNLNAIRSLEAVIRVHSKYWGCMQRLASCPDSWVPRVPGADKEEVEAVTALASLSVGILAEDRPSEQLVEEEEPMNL

[2] = tested on: Huh-7 (human hepatoma cells); experiment: MTT cancer cell growth inhibition; format: cell-based; conditions: Homo sapiens, Huh-7, 72 h, MTT, 72 hours incubation, Huh-7 cells; read-out: GI50 Huh-7
Procedure, shortened: (§1)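 Three-day compound exposure (final 10^−5–10^−10 M, three replicate wells) of cells seeded at 1500 per well precedes a 4 h MTT incubation at 37° C. Viability is taken from 570 nm absorbance after DMSO solubilisation, and GI50 calculated from it.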

[3] = tested on: Bel-7402 (human hepatoma cells); experiment: MTT cancer cell growth inhibition; format: cell-based; conditions: Homo sapiens, Bel-7402, 72 h, MTT, 72 hours incubation, Bel-7402 cells; read-out: GI50 Bel-7402
Procedure, shortened: as §1

[4] = tested on: lncap (prostate cancer cells); experiment: MTT cancer cell growth inhibition; format: cell-based; conditions: Homo sapiens, LNCaP, 72 h, MTT, 72 hours incubation, read-out: GI50 lnca
Procedure, shortened: as §1

[5] = tested on: U937 (human leukemia cells); experiment: MTT cancer cell growth inhibition; format: cell-based; conditions: Homo sapiens, U-937, 72 h, MTT, 72 hours incubation, read-out: GI50 U93
Procedure, shortened: as §1

[6] = tested on: MDA-MB-231 (breast cancer cells); experiment: MTT cancer cell growth inhibition; format: cell-based; conditions: Homo sapiens, MDA-MB-231, 72 h, read-out: GI50 MDA-MB-231, MTT, 72 hours incubation, MDA-MB-231 cells
Procedure, shortened: as §1

[7] = tested on: HT1080 (human fibrosarcoma cells); experiment: MTT cancer cell growth inhibition; format: cell-based; conditions: Homo sapiens, HT-1080, 72 h, MTT, 72 hours incubation, read-out: GI50 HT1
Procedure, shortened: as §1

[8] = tested on: SGC-7901 (human gastric cancer cells); experiment: MTT cancer cell growth inhibition; format: cell-based; conditions: Homo sapiens, SGC-7901, 72 h, MTT, 72 hours incubation, SGC-7901 cells; read-out: GI50 SGC-7901
Procedure, shortened: as §1

[9] = tested on: PANC-1 (Pac-1, human pancreatic cancer cells); experiment: MTT cancer cell growth inhibition; format: cell-based; conditions: Homo sapiens, PANC-1, 72 h, MTT, 72 hours incubation, read-out: GI50 PAN
Procedure, shortened: as §1

[10] = tested on: Hela (human cervical cancer cells); experiment: MTT cancer cell growth inhibition; format: cell-based; conditions: Homo sapiens, HeLa, 72 h, MTT, 72 hours incubation, read-out: GI50 Hela
Procedure, shortened: as §1

[11] = tested on: KBM5-T315I (human chronic myelogenous leukemia); experiment: MTT cancer cell growth inhibition; format: cell-based; conditions: Homo sapiens, 72 h, MTT, 72 hours incubation, KBM5-T315I cells; read-out: GI50 KBM5-T315I
Procedure, shortened: as §1

[12] = tested on: N-87 (human gastric cancer cells); experiment: MTT cancer cell growth inhibition; format: cell-based; conditions: Homo sapiens, 72 h, MTT, 72 hours incubation, N-87 cells; read-out: GI50 N-87
Procedure, shortened: as §1

[13] = tested on: MCF-7 (human breast cancer cells); experiment: MTT cancer cell growth inhibition; format: cell-based; conditions: Homo sapiens, MCF7, 72 h, 72 hours incubation, read-out: GI50 MCF
Procedure, shortened: as §1

[14] = tested on: H1975 (non-small cell lung adenocarcinoma); experiment: MTT cancer cell growth inhibition; format: cell-based; conditions: Homo sapiens, NCI-H1975, 72 h, MTT, 72 hours incubation, H1975 cells; read-out: GI50 H1975
Procedure, shortened: as §1

[15] = tested on: KBM-5 (human chronic myelogenous leukemia); experiment: MTT cancer cell growth inhibition; format: cell-based; conditions: Homo sapiens, KBM5, 72 h, MTT, 72 hours incubation, KBM-5 cells; read-out: GI50 KBM-5
Procedure, shortened: as §1

[16] = tested on: HCC827 (human non-small cell lung cancer cells); experiment: MTT cancer cell growth inhibition; format: cell-based; conditions: Homo sapiens, HCC827, 72 h, MTT, 72 hours incubation, HCC827 cells; read-out: GI50 HCC827
Procedure, shortened: as §1

[17] = tested on: MOLT-4 (human acute lymphoblastic leukemia cells); experiment: MTT cancer cell growth inhibition; format: cell-based; conditions: Homo sapiens, MOLT-4, 72 h, MTT, 72 hours incubation, read-out: GI50 Mol
Procedure, shortened: as §1

[18] = tested on: BGC-823 (human gastric cancer cells); experiment: MTT cancer cell growth inhibition; format: cell-based; conditions: Homo sapiens, BGC-823, 72 h, MTT, 72 hours incubation, read-out: GI50 BG
Procedure, shortened: as §1

[19] = tested on: A549 (human lung cancer cells); experiment: MTT cancer cell growth inhibition; format: cell-based; conditions: Homo sapiens, A549, 72 h, MTT, 72 hours incubation, read-out: GI50 A54
Procedure, shortened: as §1

[20] = tested on: DU145 (human prostate cancer cells); experiment: MTT cancer cell growth inhibition; format: cell-based; conditions: Homo sapiens, DU-145, 72 h, MTT, 72 hours incubation, read-out: GI50 Du1
Procedure, shortened: as §1

[21] = tested on: K562 (human leukemia cells); experiment: MTT cancer cell growth inhibition; format: cell-based; conditions: Homo sapiens, K562, 72 h, MTT, 72 hours incubation, K562 cells; read-out: GI50 K562
Procedure, shortened: as §1

| IC50 HDAC7 [1] | GI50 [2] | GI50 [3] | GI50 [6] | GI50 [8] | GI50 [11] | GI50 [12] | GI50 [14] | GI50 [15] | GI50 [16] | GI50 [21] | GI50 ([4]; lncap cells) | GI50 ([5]; U937 cells) | GI50 ([7]; HT1080 cells) | GI50 ([9]; PANC-1 cells) | GI50 ([10]; Hela cells) | GI50 ([13]; MCF-7 cells) | GI50 ([17]; MOLT-4 cells) | GI50 ([18]; BGC-823 cells) | GI50 ([19]; A549 cells) | SMILES | also measured |
| --- | --- | --- | --- | --- | --- | --- | --- | --- | --- | --- | --- | --- | --- | --- | --- | --- | --- | --- | --- | --- | --- |
| no activity | 46 nM | 51 nM | 46 nM | 61 nM | 59 nM | 63 nM | 38 nM | 75 nM | 51 nM | 26 nM | – | – | – | – | – | – | – | – | – | C/C=C1\NC(=O)c2ccc(F)c(n2)CNC(=O)C[C@@H](/C=C/CCSC(=O)CCCCCC)OC(=O)[C@H](C(C)C)NC1=O [Example 35] | GI50 [4]: 40 nM; GI50 [5]: 30 nM; GI50 [7]: 50 nM; GI50 [9]: 50 nM; GI50 [10]: 70 nM; GI50 [13]: 50 nM; GI50 [17]: 40 nM; GI50 [18]: 60 nM; GI50 [19]: 60 nM; GI50 [20]: 20 nM |
| no activity | 46 nM | 56 nM | 126 nM | 42 nM | 71 nM | 61 nM | 31 nM | 82 nM | 51 nM | 28 nM | – | – | – | – | – | – | – | – | – | C/C=C1\NC(=O)c2nc(ccc2F)CNC(=O)C[C@@H](/C=C/CCS)OC(=O)[C@H](CC)NC1=O [Compound 109] | GI50 [4]: 30 nM; GI50 [5]: 40 nM; GI50 [7]: 70 nM; GI50 [9]: 70 nM; GI50 [10]: 70 nM; GI50 [13]: 20 nM; GI50 [17]: 30 nM; GI50 [18]: 20 nM; GI50 [19]: 50 nM; GI50 [20]: 40 nM |
| no activity | 91 nM | 23 nM | 83 nM | 48 nM | 87 nM | 36 nM | 35 nM | 26 nM | 35 nM | 23 nM | 50 nM | 20 nM | 20 nM | 30 nM | 20 nM | 70 nM | 30 nM | 30 nM | 20 nM | C/C=C1\NC(=O)c2cc(SC)cc(n2)CNC(=O)C[C@@H](/C=C/CCS)OC(=O)[C@H](CC)NC1=O [Compound 230] | GI50 ([20]; DU145 cells): 50 nM |

The remaining lines, values behind:

| SMILES | IC50 HDAC7 [1] | GI50 [2] | GI50 [3] | GI50 [6] | GI50 [8] | GI50 [11] | GI50 [12] | GI50 [14] | GI50 [15] | GI50 [16] | GI50 [21] | GI50 ([4]; lncap cells) | GI50 ([5]; U937 cells) | GI50 ([7]; HT1080 cells) | GI50 ([9]; PANC-1 cells) | GI50 ([10]; Hela cells) | GI50 ([13]; MCF-7 cells) | GI50 ([17]; MOLT-4 cells) | GI50 ([18]; BGC-823 cells) | GI50 ([19]; A549 cells) | also measured |
| --- | --- | --- | --- | --- | --- | --- | --- | --- | --- | --- | --- | --- | --- | --- | --- | --- | --- | --- | --- | --- | --- |
| C=C1NC(=O)c2ccc(SC)c(n2)CNC(=O)C[C@@H](/C=C/CCSC(C)=O)OC(=O)[C@H](C)NC1=O [Compound 212] | no activity | 57 nM | 39 nM | 97 nM | 84 nM | 37 nM | 35 nM | 62 nM | 69 nM | 48 nM | 35 nM | 80 nM | 60 nM | 30 nM | 50 nM | 20 nM | 70 nM | 70 nM | 60 nM | 40 nM | GI50 ([20]; DU145 cells): 30 nM |
| C/C=C1\NC(=O)c2nc(ccc2SC)CNC(=O)C[C@@H](/C=C/CCSC(C)=O)OC(=O)[C@H](Cc2ccc(O)cc2)NC1=O [Compound 201] | no activity | 90 nM | 69 nM | 38 nM | 51 nM | 35 nM | 32 nM | 73 nM | 29 nM | 11 nM | 35 nM | 70 nM | 40 nM | 60 nM | 60 nM | 30 nM | 40 nM | 20 nM | 50 nM | 30 nM | GI50 ([20]; DU145 cells): 30 nM |
| C=C1NC(=O)c2cc(SC)cc(n2)CNC(=O)C[C@@H](/C=C/CCSC(C)=O)OC(=O)[C@H](C)NC1=O [Compound 211] | no activity | 24 nM | 21 nM | 85 nM | 71 nM | 28 nM | 31 nM | 73 nM | 31 nM | 55 nM | 19 nM | 30 nM | 40 nM | 40 nM | 70 nM | 60 nM | 70 nM | 30 nM | 70 nM | 40 nM | GI50 ([20]; DU145 cells): 60 nM |
| C=C1NC(=O)c2cc(F)cc(n2)CNC(=O)C[C@@H](/C=C/CCS)OC(=O)[C@H](C)NC1=O [Compound 141] | no activity | 28 nM | 58 nM | 26 nM | 17 nM | 43 nM | 67 nM | 38 nM | 36 nM | 37 nM | 31 nM | – | – | – | – | – | – | – | – | – | GI50 [4]: 80 nM; GI50 [5]: 50 nM; GI50 [7]: 80 nM; GI50 [9]: 50 nM; GI50 [10]: 80 nM; GI50 [13]: 70 nM; GI50 [17]: 80 nM; GI50 [18]: 30 nM; GI50 [19]: 50 nM; GI50 [20]: 70 nM |
